From US9957226B2, “Antimicrobial compounds” (AKTHELIA PHARMACEUTICALS, priority 2013, dated 2018)
“Also recorded” adds a separate entry of the source. Where two headings read alike, the source gives them in different places.

What was measured:
CAMP gene [1] = assay: Fold induction assay in the MN8CampLuc reporter cell line (luciferase coupled to CAMP gene); format: cell-based, human; details: for Fold induction (as luciferase activity): cells pre-differentiated by treatment with galactose, FIG. 4 and FIG. 5
Description: MN8CampLuc cells were handled according to Nylen et. al. with the following exception when predifferention of cells were performed before induction: […]

[2] = test system: autophagy-related genes Beclin-1 and AtgS; assay: RT-PCR of autophagy marker genes in HEK-293 cells; format: cell-based; details: for Expression of autophagy-related genes Beclin-1 and AtgS: 24 hrs, PBA 2 mM, compound 5 10 μM, Rapamycin 100 nM, FIG. 9 upper panel
Description: (§1) RT-PCR experiments for expression of marker genes for autophagy in HEK-293 cells were measured by real-time PCR. Data were normalized by the expression of the 18s rRNA housekeeping gene. For the immunofluorescence spectroscopy experiments HEK-293 cells were fixed after treatment with the inducers or control. The cells were then stained with DAPI to visualize the nuclei (blue), and immunolabeled with the anti-LC3, followed by the addition of Alexa-fluor 488 (green). Scale bar=10 μm.

LC3 = assay: Immunofluorescence of LC3 in HEK-293 cells; format: cell-based; details: 10 μM, 24 hrs, FIG. 9 lower panel
Description: as §1

CAMP gene [3] = assay: RT-PCR of CAMP gene expression in parental HT-29 cell line; format: cell-based, human
Description: RT-PCR experiments were performed according to Nylen et. al. (Nylén F, Miraglia E, Cederlund A, Ottosson H, Stromberg R, Gudmundsson G H, Agerberth B. 2013. Boosting innate immunity: Development and validation of a cell-based screening assay to identify LL-37 inducers. Innate Immun.).

histone deacetylases = details: average of assays reported in PubChem, FIG. 4 right panel; cited from earlier work
[4] = MN8CampLuc reporter cell line, FIG. 6
[5] = MN8CampLuc reporter cell line, FIG. 2

Nc1ccccc1NC(=O)c1ccccc1 [Compound 1, N-(2-Aminophenyl)benzamide]
Concentration required for induction (CAMP gene [1]; MN8CampLuc, FIG. 2): slightly higher concentration

COc1ccc(C(=O)Nc2ccccc2N)cc1 [Compound 2, N-(2-Aminophenyl)-4-methoxybenzamide]
Concentration required for induction (CAMP gene [1]; MN8CampLuc, FIG. 2): slightly higher concentration

Nc1ccccc1NC(=O)c1ccc(CNC(=O)OCc2ccccc2)cc1 [Compound 4, Benzyl (4-((2-aminophenyl)carbamoyl)-benzyl)carbamate]
Concentration required for induction (CAMP gene [1]; MN8CampLuc, FIG. 2): slightly higher concentration

Nc1ccccc1NC(=O)c1ccc(CNC(=O)OCc2cccnc2)cc1 [Compound 5, Pyridin-3-ylmethyl (4-((2-aminophenyl)-carbamoyl)benzyl)carbamate]
Expression of autophagy-related genes Beclin-1 and AtgS [2]: increased expression | Expression of autophagy-related genes Beclin-1 and AtgS ([2]; listed as Entinostat): upregulate the expression | Autophagy ([2]; marker genes and LC-3, FIG. 9): induce autophagy; also recorded: stimulates autophagy | LC3 expression in its membrane form (LC3-II) (LC3): upregulate | Induction in combination with VitD (CAMP gene [1]; [4]): synergistic effect; also recorded: Synergism with Vitamin D | Induction on co-incubation with PBA (13) (CAMP gene [1]; [4]): reduces entinostat-elicited induction | Inducing concentration lower than that of PBA (CAMP gene [1]; MN8CampLuc, 0.625-5 μM vs PBA 2-4 mM): about 3 orders of magnitude | Concentration required for induction (CAMP gene [1]; MN8CampLuc, FIG. 2): lowest concentration; also recorded: effective already at μM concentrations | Induction compared with PBA (13) at 2-4 mM (CAMP gene [1]; MN8CampLuc, compound 5 at 0.625-5 μM, FIG. 2): considerably higher | Induction of the CAMP gene at mRNA level (RT-PCR) (CAMP gene [3]; HT29 parental cells, FIG. 7): induces the CAMP gene; also recorded: enhanced transcription of the CAMP gene | Induction of the CAMP gene at mRNA level in combination with Vitamin D (CAMP gene [3]; HT29 parental cells, FIG. 7): synergy with Vitamin D; also recorded: synergism with Vitamin D | CAMP gene expression (mRNA), time course (CAMP gene [3]; HT-29 cells, 4 and 8 h, FIG. 8): did not induce | CAMP gene expression (mRNA), time course (CAMP gene [3]; HT-29 cells, 24 and 48 h, FIG. 8): induction was prominent

COC(=O)Cn1cc(C(=O)NCc2ccc(C(=O)Nc3ccccc3N)cc2)nn1 [Compound 6, Methyl 2-(4-((4-((2-aminophenyl)carbamoyl)benzyl)carbamoyl)-1 H-1,2,3-triazol-1-yl)acetate]
Concentration required for induction (CAMP gene [1]; MN8CampLuc, FIG. 2): slightly higher concentration

CN(C)c1ccc(NC(=O)CCCC(=O)Nc2ccccc2N)cc1 [Compound 9, N^1-(2-aminophenyl)-N^5-(4-(dimethylamino)-phenyl)glutaramide]
Fold induction of the CAMP gene (LL-37-luciferase) (CAMP gene [1]; [5]): at a cost of inducing ability

O=C(NCc1ccc(C(=O)O)cc1)OCc1cccnc1 [Compound 11, 4-((((pyridin-3-ylmethoxy)carbonyl)amino)methyl)benzoic acid]
Fold induction of the CAMP gene (LL-37-luciferase) (CAMP gene [1]; [5]): virtually no induction; also recorded: complete inactivity

O=C(CCCCCCC(=O)Nc1ccccc1)NO [Compound 12, N1-hydroxy-N8-phenyloctanediamide]
Fold induction (as luciferase activity) (CAMP gene [1]; MN8CampLuc): much less fold induction than compound 5 | Fold induction of the CAMP gene (CAMP gene [1]; MN8CampLuc, with and without pre-differentiation of cells by galactose, FIG. 3): little induction; also recorded: poor inducer

O=C(Nc1ccccc1O)c1ccccc1 [Compound 14, N-(2-Hydroxyphenyl) benzamide]
Fold induction of the CAMP gene (LL-37-luciferase) (CAMP gene [1]; [5]): virtually no induction; also recorded: complete or significant loss of the induction ability

COc1ccccc1NC(=O)c1ccccc1 [Compound 15, N-(2-methoxyphenyl)benzamide]
Fold induction of the CAMP gene (LL-37-luciferase) (CAMP gene [1]; [5]): virtually no induction; also recorded: complete or significant loss of the induction ability

COc1ccc(CNc2ccccc2N)cc1 [Compound 16, N-(4-Methoxybenzyl)-1,2-benzenediamine]
Fold induction (as luciferase activity) (CAMP gene [1]; MN8CampLuc): at a cost of inducing ability

NCCNC(=O)c1ccccc1 [Compound 17, N-(2-aminoethyl)-benzamide]
Fold induction (as luciferase activity) (CAMP gene [1]; MN8CampLuc): abolition of induction; also recorded: complete or significant loss of the induction ability

COc1ccc(C(=O)NCCN)cc1 [Compound 18, N-(2-aminoethyl)-4-methoxybenzamide]
Fold induction (as luciferase activity) (CAMP gene [1]; MN8CampLuc): abolition of induction; also recorded: complete or significant loss of the induction ability

CC(/C=C/C(=O)NO)=C\[C@@H](C)C(=O)c1ccc(N(C)C)cc1 [Compound 19, Trichostatin A]
HDAC inhibition (known IC50 values) compared with compound 5 (histone deacetylases): considerably more powerful HDAC inhibitors | Fold induction (as luciferase activity) (CAMP gene [1]; MN8CampLuc): much less fold induction than compound 5

Phenylbutyrate [Compound 13]
Expression of autophagy-related genes Beclin-1 and AtgS [2]: increased expression | Fold induction of the CAMP gene (LL-37-luciferase) (CAMP gene [1]): considerably lower induction | CAMP gene expression (mRNA), course over time (CAMP gene [3]; HT-29 cells, FIG. 8): gradual increase of the CAMP gene expression
